According to US11261186B2, “Biaryl derivative as GPR120 agonist” (LG CHEM, LTD., priority 2014, dated 2022):

Molecular target: T1, hGPR120 (Homo sapiens, UniProt Q5NUL3)
T1 construct: expressed in transfected cells; host or cells: CHO-K1
T1 sequence (Q5NUL3 1-361): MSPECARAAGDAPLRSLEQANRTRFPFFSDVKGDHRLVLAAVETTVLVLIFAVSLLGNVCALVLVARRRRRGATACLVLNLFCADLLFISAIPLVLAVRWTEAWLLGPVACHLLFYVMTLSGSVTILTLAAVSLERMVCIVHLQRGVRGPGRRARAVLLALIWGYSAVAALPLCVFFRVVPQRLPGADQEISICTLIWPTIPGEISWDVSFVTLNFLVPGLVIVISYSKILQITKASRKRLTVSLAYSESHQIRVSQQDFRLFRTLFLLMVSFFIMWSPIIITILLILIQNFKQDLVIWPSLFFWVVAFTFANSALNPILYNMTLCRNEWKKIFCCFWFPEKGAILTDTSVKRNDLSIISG
Assay: Measurement of Activity of GPR120 Agonist (Cell-Based Assay), Calcium 5 dye fluorescence
Conditions: CHO-K1 cells expressing Ga16 and hGPR120
Outline: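 CHO-K1 cells co-expressing Gα16 and hGPR120, plated 18 h, loaded 1 h at 37°C with Calcium 5 dye. Serially diluted agonists added at 0.5% DMSO final; fluorescence read at Ex 485/Em 525 nm and expressed as relative % of DMSO-only signal.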

EC50 [nM] | SMILES
< 200 | CC(C)Sc1ncccc1-c1ccc(N(C)CCCC(=O)O)c(F)c1 [Example 212, 4-{[2-fluoro-4-(2-isopropylsulfanyl-pyridin-3-yl)-phenyl]-methyl-amino}-butyric acid]
200 to 2000 | O=C(O)CCC1CCc2cc(-c3cccc(OC4CCCC4)n3)ccc2N1 (stereo not drawn) [Example 11, 3-[6-(6-cyclopentyloxy-pyridin-2-yl)-1,2,3,4-tetrahydro-quinolin-2-yl]-propionic acid]
< 200 | O=C(O)CCCOc1c(F)cc(-c2cccc(SC3CCC3)n2)cc1Cl [Example 403, 4-[2-chloro-4-(6-cyclobutylsulfanyl-pyridin-2-yl)-6-fluoro-phenoxy]-butyric acid]
200 to 2000 | CCc1ccc(Oc2ccnc(-c3cc(F)c(N4CCC(CC(=O)O)CC4)c(F)c3)n2)cc1 [Example 606, 2-[1-[2,6-difluoro-4-[6-(4-ethylphenoxy)pyrimidin-2-yl]phenyl]-4-piperidyl]acetic acid]
< 200 | O=C(O)CCCOc1c(F)cc(-n2ccc3c(F)cccc32)cc1F [Example 471, 4-[2,6-difluoro-4-(4-fluoroindol-1-yl)phenoxy]butanoic acid]
< 200 | O=C(O)CCC1CCc2cc(-c3cccc(OCC4CC4)c3)ccc2O1 (stereo not drawn) [Example 447, 3-[6-[3-(cyclopropylmethoxy)phenyl]chroman-2-yl]propanoic acid]
200 to 2000 | Fc1cc(-c2cccnc2SC2CCC2)cc(F)c1OCCCc1nnn[nH]1 [Example 25, 2-cyclobutylsulfanyl-3-{3,5-difluoro-4-[3-(1H-tetrazol-5-yl)propoxy]phenyl}pyridin]
2000 to 20000 | COCc1ccc2c(cnn2-c2cc(F)c(OCCCC(=O)O)c(F)c2)c1 [Example 480, 4-[2,6-difluoro-4-[5-(methoxymethyl)indazol-1-yl]phenoxy]butanoic acid]
< 200 | CC(C)Oc1ccc(F)cc1-c1cc(F)c(N(C)CCCC(=O)O)c(F)c1 [Example 216, 4-[methyl-(3,5,5′-trifluoro-2′-isopropoxy-biphenyl-4-yl)-amino]-butyric acid]
< 200 | CC(C)Sc1cccc(-c2cc(F)c(N3CCC(CC(=O)O)CC3)c(F)c2)n1 [Example 105, 2-[1-[2,6-difluoro-4-(6-isopropylsulfanyl-2-pyridyl)phenyl]-4-piperidyl]acetic acid]
200 to 2000 | O=C(O)CCC1CC1c1c(F)cc(-c2cccnc2OC2CCOCC2)cc1F (stereo not drawn) [Example 190, 3-(2-{2,6-difluoro-4-[2-(tetrahydro-pyran-4-yloxy)-pyridin-3-yl]-phenyl}-cyclopropyl)-propanoic acid]
200 to 2000 | O=C(O)CCCOc1c(F)cc(-c2cccc(S(=O)(=O)C3CCC3)c2)cc1F [Example 416, 4-(3′-cyclobutanesulfonyl-3,5-difluoro-biphenyl-4-yloxy)-butyric acid]
2000 to 20000 | COc1ccc(-c2cc(F)c(N3CC(CC(=O)O)C3)c(F)c2)c2c1OC(C)(C)C2 [Example 285, {1-[2,6-difluoro-4-(7-methoxy-2,2-dimethyl-2,3-dihydro-benzofuran-4-yl)-phenyl]-azetidin-3-yl}-acetic acid]
< 200 | O=C(O)CC1CN(c2c(F)cc(-c3cccc(OCC4CC4)n3)cc2F)C1 [Example 322, 2-[1-[4-[6-(cyclopropylmethoxy)-2-pyridyl]-2,6-difluoro-phenyl]azetidin-3-yl]acetic acid]
< 200 | Cc1cc(OCC2CC2)nc(-c2cc(F)c(N(C)CCCC(=O)O)c(F)c2)n1 [Example 489, 4-[4-[4-(cyclopropylmethoxy)-6-methyl-pyrimidin-2-yl]-2,6-difluoro-N-methyl-anilino]butanoic acid]
< 200 | CC(C)Sc1cccc(-c2cc(F)c(OCCCC(=O)O)c(Cl)c2)n1 [Example 404, 4-[2-chloro-6-fluoro-4-(6-isopropylsulfanyl-pyridin-2-yl)-phenoxy]-butyric acid]
< 200 | CN(CCCCC(=O)O)c1c(F)cc(-c2cccc(OCC3CC3)n2)cc1F [Example 101, 5-[4-[6-(cyclopropylmethoxy)-2-pyridyl]-2,6-difluoro-N-methyl-anilino]pentanoic acid]

SMILES | EC50 [nM]
O=C(O)CCCCc1ccc(-c2cccnc2OC2CCC2)cc1F [Example 245, 5-[4-(2-cyclobutoxy-pyridin-3-yl)-2-fluoro-phenyl]-pentanoic acid] | < 200
O=C(O)CC1CCN(c2c(F)cc(-n3ncc4ccc(OC5CCC5)cc43)cc2F)C1 (stereo not drawn) [Example 494, 2-[1-[4-[6-(cyclobutoxy)indazol-1-yl]-2,6-difluoro-phenyl]pyrrolidin-3-yl]acetic acid] | 200 to 2000
O=C(O)CC1CCN(c2c(F)cc(-c3nc(OC4CCC4)cs3)cc2F)CC1 [Example 379, {1-[4-(4-cyclobutoxy-thiazol-2-yl)-2,6-difluoro-phenyl]-piperidin-4-yl}acetic acid] | < 200
Cc1cc(OC2CCC2)nc(-c2cc(F)c(N3CCC(CC(=O)O)CC3)c(F)c2)c1 [Example 327, 2-[1-[4-[6-(cyclobutoxy)-4-methyl-2-pyridyl]-2,6-difluoro-phenyl]-4-piperidyl]acetic acid] | 200 to 2000
O=C(O)CC1CCN(c2c(F)cc(-c3cccc(OC4CCC4)n3)cc2Cl)CC1 [Example 319, 2-[1-[2-chloro-4-[6-(cyclobutoxy)-2-pyridyl]-6-fluoro-phenyl]-4-piperidyl]acetic acid] | 200 to 2000
O=C(O)CCCC(F)(F)c1ccc(-c2cc(F)cc(OC3CCC3)c2)cc1 [Example 414, 5-(5′-cyclobutoxy-3′-fluoro-biphenyl-4-yl)-5,5-difluoro-pentanoic acid] | < 200
O=C(O)CC1CN(c2c(F)cc(-c3cccc(OC4CCCC4)n3)cc2F)C1 [Example 116, 2-[1-[4-[6-(cyclopentoxy)-2-pyridyl]-2,6-difluoro-phenyl]azetidin-3-yl]acetic acid] | < 200
CC(C)Oc1ncccc1-c1ccc(C(C)(C)CCCC(=O)O)cc1 [Example 158, 5-[4-(2-isopropoxy-pyridin-3-yl)-phenyl]-5-methyl-hexanoic acid] | 200 to 2000
O=C(O)C[C@@H]1CCN(c2c(F)cc(-c3cccnc3OC3CCCC3)cc2F)C1 [Example 137, 2-[(3S)-1-[4-[2-(cyclopentoxy)-3-pyridyl]-2,6-difluoro-phenyl]pyrrolidin-3-yl]acetic acid] | < 200
Cc1cc(OC2CCC2)nc(-c2cc(F)c(OCCCC(=O)O)c(F)c2)c1 [Example 395, 4-[4-[6-(cyclobutoxy)-4-methyl-2-pyridyl]-2,6-difluoro-phenoxy]butanoic acid] | < 200
O=C(O)CC1CN(c2c(F)cc(-c3cncc(OC4CCC4)n3)cc2F)C1 [Example 334, 2-[1-[4-[6-(cyclobutoxy)pyrazin-2-yl]-2,6-difluoro-phenyl]azetidin-3-yl]acetic acid] | < 200
O=C(O)CCCOc1c(F)cc(-c2cc(OC3CCC3)cc(Cl)n2)cc1F [Example 393, 4-[4-[6-chloro-4-(cyclobutoxy)-2-pyridyl]-2,6-difluoro-phenoxy]butanoic acid] | < 200
CC(C)COc1ccnc(-c2cc(F)c(N3CCC(CC(=O)O)C3)c(F)c2)n1 (stereo not drawn) [Example 502, 2-{1-[2,6-difluoro-4-(4-isobutoxy-pyrimidin-2-yl)phenyl]pyrrolidin-3-yl}acetic acid] | 200 to 2000
